Results taken from patent publication US4206117A, “Pyridinyl aminoalkyl ethers” (BASF Aktiengesellschaft, priority 1977, dated 1980).

Key:
[1] = Therapeutic range, quotient of LD 50 (mice) and ED 50 (rats); format: in vivo; conditions: in vivo; LD 50 mice i.p. / ED 50 rats oral
Experimental: (§1) To determine the anti-arrhythmic activity, the drugs were administered orally to rats (Sprague Dawley, weight from 180 to 240 g) 45 minutes before the start of the narcosis.
(§2) The animals were narcotized with thiobutabartial (100 mg/kg administered intraperitoneally). The arrhythmogenic substance used was aconitine, which was administered by intravenous infusion (at a rate of 0.005 mg/kg.min) 60 minutes after administration of the test substance. In the case of untreated animals (N=30), arrhythmias occurred after an average of 3.7±0.9 minutes, the commencement of which can be delayed by anti-arrhythmic agents, the delay depending on the dosage.
(§3) For a quantitative evaluation of the linear relation between log dose (mg/kg) of the test substances and relative prolongation of the duration of aconitine infusion (Δ%), the dose which extended the duration of infusion by 50% (ED 50) was determined. The prior art anti-arrhythmic agent quinidine served as a comparative substance.
(§4) The acute toxicity was determined on groups of 10 or 20 female Swiss mice, weighing 20-26 g, the compounds being administered intraperitoneally.

[2] = system: Aconitineinduced arrhythmia, rats; test: animal or person; format: in vivo, rats (Sprague Dawley); conditions: for ED50 / Emax: Rattus norvegicus, po; for ED50: 1 h, read-out: Effective dose ED 50 (extends the duration of aconitine infusion by 50%); for Emax: read-out: R.M.A. (relative maximum activity); for Maximum action: Prolongation of the duration of aconitine infusion, Δ% / R.M.A. (relative maximum activity): at the highest nontoxic dose; for Maximum action: Prolongation of the duration of aconitine infusion, Δ% / Maximum action: Dose (highest nontoxic dose): oral, rats; for R.A. (relative activity) / R.M.A. (relative maximum activity): quinidine = 1.00
Experimental: as §1
The animals were narcotized with thiobutabartial (100 mg/kg administered intraperitoneally). The arrhythmogenic substance used was aconitine, which was administered by intravenous infusion (at a rate of 0.005 mg/kg.min) 60 minutes after administration of the test substance.
For a quantitative evaluation of the linear relation between log dose (mg/kg) of the test substances and relative prolongation of the duration of aconitine infusion (Δ%), the dose which extended the duration of infusion by 50% (ED 50) was determined.

[3] = Acute toxicity, intraperitoneal administration; conditions: mouse, in vivo, ip, female Swiss mice, within 24 hours, read-out: Acute toxicity LD 50
Experimental: as §4

[4] = system: Aconitineinduced arrhythmia, rats; test: Therapeutic range, quotient of LD 50 (mice) and ED 50 (rats); format: in vivo; conditions: relative to quinidine
Experimental: as §1, §2, §3, §4

Compound | selectivity ratio [1] | ED50 [2] [mg/kg] | Emax [2] [%] | Maximum action: Prolongation of the duration of aconitine infusion, Δ% [2] [%] | Maximum action: Dose (highest nontoxic dose) [2] [mg/kg] | R.A. (relative activity) [2] | LD50 at 24 h [3] [mg/kg] | R.M.A. (relative maximum activity) [2] | effect achieved with the maximum dose, times as great as that of quinidine ([2]; relative to quinidine) [times] | therapeutic range, times as great as that of quinidine [4] [times] | anti-arrhythmic action, times more powerful than that of quinidine ([2]; relative to quinidine) [times] | therapeutic range compared with that of quinidine (in words) [4]
Cc1nc(Cc2ccccc2)c2c(c1OCCN(C)C)COC2.Cl.Cl [Example 1, 4-benzyl-6-methyl-1,3-dihydro-furo[3,4-c]pyridin-7-yl β-dimethylaminoethyl ether bis-hydrochloride] | ~4.74 | 31 | 138 | 184 | 68.1 | 1.36 | ~147 |  |  |  |  | 
COC(=O)c1c(Cc2ccccc2)nc(C)c(OCCCN(C)C)c1C(=O)OC [Example 18] | 17.3 | 9.82 | 222 | 295 | 215 | 4.35 | 170 |  |  |  |  | 
CCOC(=O)c1c(Cc2ccccc2)nc(C)c(OCCCN(C)C)c1C(=O)OCC [Example 25] | 8.62 | 15.9 | 147 | 195 | 100 | 2.67 | 137 |  |  |  |  | 
CCc1nc(Cc2ccccc2)c2c(c1OCCCN(C)C)COC2 [Example 29] | 5.75 | 18.1 | 204 | 271 | 215 | 2.34 | 104 |  |  |  |  | 
CN(C)CCCOc1c(Cc2ccccc2)nc(Cc2ccccc2)c2c1COC2 [Example 32] |  |  |  | 319 | 215 | 2.84 |  | 2.40 |  |  |  | 
Cc1nc(Cc2ccccc2)c2c(c1OCCCNC(C)C)COC2 [Example 34, 4-benzyl-6-methyl-1,3-dihydro-furo[3,4-c]pyridin-7-yl 3-isopropylaminopropyl ether] |  |  |  | 457 | 215 | 1.46 |  | 3.44 | 3.4 |  |  | 
CCCN(CCC)CCCOc1c(C)nc(Cc2ccccc2)c2c1COC2 [Example 36] | 8.57 | 21 | 165 | 219 | 100 | 2.01 | 180 |  |  |  |  | 
Cc1nc(Cc2ccccc2)c2c(c1OCCCN1CCNCC1)COC2 [Example 43] | ~5.16 | 28.5 | 116 | 154 | 46.4 | 1.48 | ~147 |  | 1.2 |  |  | 
Cc1nc(Cc2ccccc2)c2c(c1OCCCCNC(C)C)COC2 [Example 47] |  |  |  | 358 | 100 | 7.47 |  | 2.69 |  | 4.1 | 7.5 | 
Cc1nc(Cc2ccccc2)c2c(c1OCCCCCNC(C)C)COC2 [Example 52] | 6.5 | 16 | 169 | 225 | 215 | 2.64 | 104 |  |  |  |  | 
Cc1nc(Cc2ccccc2)c2c(c1OCCC(C)CCNC(C)C)COC2 (stereo not drawn) [Example 55] |  |  |  | 333 | 100 | 3.47 |  | 2.50 |  |  |  | 
CCN(CC)CCC(C)CCOc1c(C)nc(Cc2ccccc2)c2c1COC2 (stereo not drawn) [Example 57] |  |  |  | 261 | 100 | 3.74 |  | 1.96 |  |  |  | 
CCNCCCCOc1c(C)nc(Cc2ccccc2)c2c1COC2 [Example 58] | 6.06 | 18.8 | 140 | 186 | 100 | 2.27 | 114 |  |  |  |  | 
CCC(C)NCCCCOc1c(C)nc(Cc2ccccc2)c2c1COC2 (stereo not drawn) [Example 60] | 4.79 | 21.1 | 185 | 246 | 100 | 2.00 | 101 |  |  |  |  | 
Cc1nc(Cc2ccccc2)c2c(c1OCCCCNC(C)(C)C)COC2 [Example 61] |  |  |  | 298 | 46.4 | 4.60 |  | 2.24 |  |  |  | 
Cc1nc(Cc2ccccc2)c2c(c1OCCCCN(C(C)C)C(C)C)COC2 [Example 64] | 7.36 | 21.2 | 238 | 317 | 100 | 2.01 | 156 |  |  |  |  | 
Cc1nc(Cc2ccccc2)c2c(c1OCCCCNCCC(C)(C)O)COC2 [Example 68] | ~4.31 | 15.8 | 181 | 241 | 100 | 2.70 | ~68.1 |  |  |  |  | as great as
Cc1nc(Cc2ccccc2)c2c(c1OCC(O)CNC(C)C)COC2.Cl (stereo not drawn) [Example 69, 4-benzyl-6-methyl-1,3-dihydrofuro[3,4-c]pyridin-7-yl 2-hydroxy-3-isopropylaminopropyl ether hydrochloride] | 4.65 | 23 | 164 | 218 | 464 | 1.84 | 107 |  |  |  |  | 
C=C[C@H]1C[N@@]2CC[C@H]1C[C@@H]2[C@@H](O)c1ccnc2ccc(OC)cc12 [Quinidine, quinidine, reference compound] |  |  |  | 133 |  |  |  |  |  |  |  | 
